Source: patent publication US12221494B2, “Short synthetic peptides and their uses for treating retinal degenerative diseases and/or tissue injuries” (MacKay Memorial Hospital, priority 2019, dated 2025)

What was measured:
survivin mRNA = experiment: Real-time qPCR of survivin mRNA in C2C12 cells; format: cell-based, mouse; details: C2C12 cells in low serum media, 20 μM peptide, 6 h
Experimental: (§1) Total RNA was extracted from cells using TRIzol (Invitrogen). Synthesis of cDNA was performed with 1 μg of total RNA at 50° C. for 50 min using oligo(dT) primers and reverse transcriptase (Superscript III; Invitrogen). Briefly, quantification of cDNA was performed in the LightCycler (Roche, Mannheim, Germany) using the DNA Master SYBR Green I kit (Roche) with the following cycling conditions: initial denaturation at 95° C. for 10 min, followed by 40 cycles at 95° C. for 10 s, 60° C. for 10 s, and 72° C. for 10 s and a 5-min terminal incubation at 72° C. The data were calculated with AACt. The expression was then normalized against the expression of glyceraldehyde-3-phosphate dehydrogenase (GAPDH). The PCR primers were mouse Survivin sense, 5′-[…]-3′ (SEQ ID NO: 27), anti-sense, 5′-[…]-3′ (SEQ ID NO: 28) (accession number: NM_001012273.1; PCR product: 136 bp); mouse GAPDH sense, 5′-[…]-3′ (SEQ ID NO: 29), anti-sense, 5′-[…]-3′ (SEQ ID NO: 30) (NM_001289726.1; 149 bp). For analysis rabbit inflammatory gene expression, The PCR primers were rabbit TNF-αsense, 5′-[…]-3′ (SEQ ID NO: 31), anti-sense, 5′-[…]-3′ (SEQ ID NO: 32) (accession number: NM 001082263.1); rabbit IL-1βsense, 5′-[…]-3′(SEQ ID NO: 33), anti-sense, 5′-[…]-3′ (SEQ ID NO: 34) (NM 001082201.1); rabbit GAPDH sense, 5′-[…]-3′ (SEQ ID NO: 35), anti-sense, 5′-[…]-3′ (SEQ ID NO: 36) (accession number:NM 001082253.1). The cycle threshold (Ct) values of the PCR product and a GAPDH (Glyceraldehyde 3-phosphate dehydrogenase) control mRNA were used to calculate relative quantities of mRNA.
Similar to the approach in Example 1.2.1, the expression level of survivin mRNA in C2C12 cells was used as an indicator for the function of the 6-mer variants in Tables 3 to 5. Briefly, C2C12 cells in low serum media were treated with 20 μM the 6-mer variants for 6 h. […] The results also confirmed that alanine substation at the glutamic acid (E) residues would severely impair the 6-mer activity.

[1] = test system: Sprague-Dawley rats, retinal ischemia/reperfusion (I/R) injury; experiment: Immunofluorescence staining of retinal microglia/astrocytes 14 days after I/R injury; format: in vivo; details: rat
Experimental: Experimental procedures were approved by the Mackay Memorial Hospital Review Board (Taiwan, R.O.C.). All surgeries were performed under aseptic conditions. Adult 10-week-old male Sprague-Dawley rats (initial body weight=312±11 g) were anesthetized by an intraperitoneal injection of xylazine (10 mg/kg). Peptide was dissolved in 0.85% normal saline to 1 mM and delivered by the subconjunctival injection of 100 μL peptide through a 31-Gneedle with a micro-syringe before the induction of I/R. Normal saline was as a vehicle control. Rat I/R was performed after peptide or vehicle injection for 4 h. Pupils were dilated with 0.5% tropicamide and 0.5% phenylephrine. Body temperature was maintained at 37° C. using a heating blanket After dilation of the pupil, the anterior chamber of the right eye was cannulated with a 27-gauge needle connected to a physiological saline reservoir. The intraocular pressure (IOP) was raised to 110 mmHg by keeping the reservoir at 150 cm above the eye, and retinal ischemia was confirmed by observing whitening of the iris and the loss of the red reflex of the retina. After 90 min of ischemia, the cannulating needle was withdrawn and the IOP was returned to normal pressure, resulting in recovery of the blood supply from the retinal artery and reperfusion injury induced. The reperfusion was evident by the return of the red reflex. Corneal analgesia was achieved using 1 or 2 drops of 0.4% oxybuprocaine hydrochloride, and Ofloxacin ophthalmic gel (0.3%) was applied topically to the eye before and after the procedure. […]
Deparaffinized retinal sections were blocked with 10% goat serum and 5% bovine serum albumin (BSA) in PBS containing 0.5% TritonX-100 (PBST) for 20 min at room temperature for blocking nonspecific staining. […] The slides were then rinsed with PBST three times, mounted with FluorSave™ reagent (Calbiochem) and viewed with an epifluorescence microscope (Zeiss Axioplan 2 imaging; Zeiss, Oberkochen, Germany) Three sections per eye were averaged and the mean of six eyes was recorded as the representative value for each group.

IL-1β mRNA = experiment: Hyperosmotic stress-induced IL-1β gene expression in rabbit corneal epithelial cells (qPCR); format: cell-based; details: 20 μM peptide 6 h, then hyperosmotic medium (463 mOsM) 3 h, solvent 4.5-fold
Experimental: as §1
Limbal stem epithelial cells (LSEC) were isolated from 6-month-old New Zealand white rabbits and continuously cultivated for 14 days byDMEM/F-12basalmedium based cell-suspension culture to achieve corneal-liked epithelial cell differentiation as previously described (Ho et al., Stem Cells. 2013; 31:1775). […] After 3 h, quantitative real-time PCR was used to estimate HOP-induced Tumor necrosis factor (TNF)-α and nterleukin-1 beta (IL-1β) expressions. […]

**Q.** Which results are given for “NH2-(D-Ser)-Leu-Gly-Ala-Glu-Gln-COOH (SLGAEQ; HELM PEPTIDE1{[dS].L.G.A.E.Q}$$$$V2.0; SMILES CC(C)C[C@H](NC(=O)[C@H](N)CO)C(=O)NCC(=O)N[C@@H](C)C(=O)N[C@@H](CCC(=O)O)C(=O)N[C@@H](CCC(N)=O)C(=O)O) [6-mer dS]”?
**A.** survivin mRNA induction, in words (survivin mRNA): increased the level of survivin mRNA; activation of Iba-1-positive microglial cells and GFAP-positive astrocytes, in words [1]: less prominent; Iba-1-positive Microglia ([1]; Control 3.3 ± 1.2, Vehicle + I/R 24.7 ± 1.6): 5.8 ± 1.0 /400 × field; GFAP-positive astrocytes ([1]; Control 6.9 ± 2.0, Vehicle + I/R 28.6 ± 2.2): 10.3 ± 1.8 /400 × field; mRNA expression of IL-1β, in words (IL-1β mRNA): apparently repressed the mRNA expression of TNF-α and IL-1β
